The nature of series [1]: Bioavailability (BA) test. The format is in vivo. The conditions noted are these: plasma; mice or SD rats, oral vs intravenous AUC. On the procedure:
(1) Animals: Mice or SD rats were used
(2) Breeding conditions: Mice or SD rats were allowed to freely take solid food and sterilized tap water.
(3) Dose and grouping: orally or intravenously administered at a predetermined dose; grouping was as follows (Dose depends one the compound) • Oral administration: 0.3 to 30 mg/kg (n=2 to 3) • Intravenous administration: 0.5 to 10 mg/kg (n=2 to 3)
(4) Preparation of dosing solution: for oral administration, in a solution or a suspension state: for intravenous administration, in a solubilized state
(5) Administration method: in oral administration, forcedly administer into ventriculus with oral probe; in intravenous administration, administer from caudal vein with a needle-equipped syringe
(6) Evaluation items: blood was collected over time, and the plasma concentration of drug was measured by LC/MS/MS
(7) Statistical analysis: regarding the transition of the plasma concentration or the present compound, the area under the plasma concentration-time curve (AUC) was calculated by non-linear least squares program WinNonlin (Registered trade name), and the bioavailability (BA) was calculated the AUCs of the oral administration group and intravenous administration group

The target of another series is human P2X3 receptor (Homo sapiens (Human), UniProt P56373). Description: Evaluation of human P2X3 receptor inhibitory activity (Fluo-3 calcium fluorescence, FDSS 3000, ATP stimulation).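 Further: stimulus was 50 nM ATP with fluorescence followed for 3 min, and the response per well was peak post-ATP fluorescence divided by the reading at measurement start.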 The format is cell-based.
A further series concerns human liver microsomes. Description: Metabolism stability test with pooled human hepatic microsomes. In kind it is in vitro ADME. The note with it: compound concentration 0.5 μmol/L, 30 minutes, NADPH. As for the experimental part:
Using commercially available pooled human hepatic microsomes, a test compound is reacted for a constant time, a remaining rate is calculated by comparing a reacted sample and an unreacted sample, thereby, a degree of metabolism in liver is assessed.
A reaction was performed (oxidative reaction) at 37° C. for 0 minute or 30 minutes in the presence of 1 mmol/L NADPH in 0.2 mL of a buffer (50 mmol/L tris-HCl pH 7.4, 150 mmol/L potassium chloride, 10 mmol/L magnesium chloride) containing 0.5 mg protein/mL of human liver microsomes. After the reaction, 50 μL of the reaction solution was added to 100 μL of a methanol/acetonitrile=1/1 (v/v), mixed and centrifuged at 3000 rpm for 15 minutes. The test compound in the supernatant was quantified by LC/MS/MS, and a remaining amount of the test compound after the reaction was calculated, letting a compound amount at 0 minute reaction time to be 100%.

Another series concerns the target rat P2X3 receptor (Rattus norvegicus (Rat), UniProt P49654). The experiment in a line: Evaluation of rat P2X3 receptor inhibitory activity in the presence of rat serum albumin (1% RSA). In kind it is cell-based. On the procedure: Rat P2X3 receptor gene (GenBank accession number NM_031075) was expressed in C6BU-1 cell. The cells stably expressing rat P2X3 were seeded in a 96-well microtiter plate at a :concentration of 8000 cells/well and cultured in the medium (8.3% fetal bovine serum, 8.3% horse serum, 1% antibiotic and antifungal in DMEM) for one day at 37° C. under 5% carbon dioxide atmosphere. In transiently expressing system, the C6BU-1 cells were seeded in a 96-well microtiter plate at a concentration of 2500 cells/well and cultured in the medium for one day at 37° C. under 5% carbon dioxide atmosphere. The plasmid was transfected into the cells using transfection reagent FuGENE6 (Roche). The transfected cells were cultured in the medium for one day at 37° C. under 5% carbon dioxide atmosphere. […] Measurement of fluorescence intensity by FDSS 3000 was started, and 40 μL of DMSO solutions containing 1% RSA (final concentrations) and different concentrations of the test compound as prepared by dilution with dilution buffer (20 mM HEPES, 137 mM NaCl, 2.7 mM KCl, 0.9 mM MgCl2, 5.0 mM CaCl2, 5.0 mM D-glucose, 2.5 mM probenecid, 0.1% Pluronic F-127, pH 7.5) were dispensed to each well through the built-in automatic dispenser. Five minutes after, 50 nM ATP solution (50 μL) prepared by dilution with the dilution buffer was dispensed through the built-in automatic dispenser, and the measurement of fluorescence intensity was continued for 3 min. For each well, the specific maximum fluorescence intensity was calculated as the ratio of the maximum fluorescence intensity after addition of the ATP solution to the fluorescence intensity at the starting of the measurement. […] FDSS software (Hamamatsu Photonics K.K.) was used for calculation of the specific maximum fluorescence intensity. IC50 was calculated using Microsoft Excel (Microsoft Corporation) and XLfit (idbs Ltd.).

Another series concerns the target CYP3A4 (Homo sapiens (Human), UniProt P08684). Description: CYP inhibition test, pooled human hepatic microsome, terfenedine hydroxylation. In kind it is in vitro ADME. The conditions noted are these: substrate terfenedine. As for the experimental part:
Using commercially available pooled human hepatic microsome, and employlng, as markers, 7-ethoxyresorufin O-deethylation (CYP1A2), tolbutamide methyl-hydroxylation (CYP2C9), mephenyloin 4′-hydroxylation (CYP2C19), dextromethorphan O-demethylation (CYP2D6), and terfenedine hydroxylation as typical substrate metabolism reactions of human main five CYP enzyme forms (CYP1A2, 2C9, 2C19, 2D6, 3A4), an inhibitory degree of each metabolite production amount by a test compound was assessed.
The reaction conditions were as follows: substrate, 0.5 μmol/L ethoxyresorufin (CYP1A2), 100 μmol/L tolbutamide (CYP2C9), 50 μmol/L S-mephenitoin (CYP2C19), 5 μmol/L dextromethorphan (CYP2D6), 1 μmol/L terfenedine (CYP3A4) reaction time, 15 minutes; reaction temperature, 37° C; enzyme, pooled human hepatic microsome 0.2 mg protein/mL; test drug concentration, 1.0, 5.0, 10, 20 μmol/L (four points).
Each five kinds of substrates, human hepatic microsome, or a test drug in 50 mmol/L Hepes buffer as a reaction solution was added to a 96-well plate at the composition as described above, NADPH, as a cofactor was added to initiate metabolism reactions as markers and, after the incubation at 37° C. for 15 minutes, a methanol/acetonitrile=1/1 (v/v) solution was added to stop the reaction. After the centrifugation at 3000 rpm for 15 minutes, resorufin (CYP1A2 metabolite) in the supernatant was quantified by a fluorescent multilabel counter and tributamide hydroxide (CYP2CP metabolite), mephenyloin 4′ hydroxide (CYP2C19 metabolite), […] (CYP2D6 metabolite), and terfenadine alcohol (CYP3A4 metabolite) were quantified by LC/MS/MS.

The mark [2] stands for this setting: human P2X3 receptor, Test Example 1.

pIC50: −log10 of the molar value. Some results are limits rather than exact numbers.

Chain of rat P2X3 receptor (P49654 whole entry): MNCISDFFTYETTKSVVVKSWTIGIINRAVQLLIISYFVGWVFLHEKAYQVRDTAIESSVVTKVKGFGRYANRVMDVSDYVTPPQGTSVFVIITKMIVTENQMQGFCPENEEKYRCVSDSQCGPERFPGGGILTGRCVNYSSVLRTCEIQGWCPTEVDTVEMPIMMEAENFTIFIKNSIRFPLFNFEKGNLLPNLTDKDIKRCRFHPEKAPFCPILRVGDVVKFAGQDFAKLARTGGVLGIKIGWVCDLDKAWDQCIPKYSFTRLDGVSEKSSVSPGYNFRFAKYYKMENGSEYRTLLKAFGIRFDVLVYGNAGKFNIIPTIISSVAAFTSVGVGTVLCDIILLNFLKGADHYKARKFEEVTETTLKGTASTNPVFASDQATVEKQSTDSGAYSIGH
Chain of CYP3A4 (P08684 whole entry): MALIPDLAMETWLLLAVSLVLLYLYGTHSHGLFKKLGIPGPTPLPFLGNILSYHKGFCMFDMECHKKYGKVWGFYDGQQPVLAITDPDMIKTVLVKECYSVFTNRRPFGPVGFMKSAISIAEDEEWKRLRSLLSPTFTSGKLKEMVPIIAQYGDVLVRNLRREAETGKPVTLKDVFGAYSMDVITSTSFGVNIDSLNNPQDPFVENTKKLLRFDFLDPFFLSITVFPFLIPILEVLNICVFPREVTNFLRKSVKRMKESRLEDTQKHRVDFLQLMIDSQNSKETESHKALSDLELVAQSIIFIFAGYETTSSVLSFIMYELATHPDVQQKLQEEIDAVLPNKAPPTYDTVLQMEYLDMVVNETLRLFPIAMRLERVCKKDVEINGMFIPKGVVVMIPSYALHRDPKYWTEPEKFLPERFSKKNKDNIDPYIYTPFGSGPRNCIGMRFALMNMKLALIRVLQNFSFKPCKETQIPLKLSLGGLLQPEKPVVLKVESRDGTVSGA
Chain of human P2X3 receptor (P56373 whole entry): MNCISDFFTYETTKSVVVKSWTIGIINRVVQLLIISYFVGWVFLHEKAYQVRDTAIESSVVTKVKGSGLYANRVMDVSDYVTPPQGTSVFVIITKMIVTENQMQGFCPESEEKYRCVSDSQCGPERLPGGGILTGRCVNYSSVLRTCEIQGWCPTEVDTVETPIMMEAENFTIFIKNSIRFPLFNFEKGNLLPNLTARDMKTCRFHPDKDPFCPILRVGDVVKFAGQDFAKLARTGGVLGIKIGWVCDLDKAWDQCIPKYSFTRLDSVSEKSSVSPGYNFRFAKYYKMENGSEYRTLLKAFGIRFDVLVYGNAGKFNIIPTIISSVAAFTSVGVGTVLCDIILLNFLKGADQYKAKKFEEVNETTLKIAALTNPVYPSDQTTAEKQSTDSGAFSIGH

The bioavailability is dose-corrected exposure relative to a reference, in per cent. High values mean much systemic uptake, low ones little systemic uptake. One may read the pIC50 as the negative decadic logarithm of the IC50, by convention in mol/L. Compound `CCn1c(=O)[nH]/c(=N\c2ccc(Oc3ccnc(C(=O)O)c3)cc2)n(Cc2ccc(Cl)cc2)c1=O` [Compound I-1788] registered a bioavailability in series [1] of 31%. The pIC50 on human P2X3 receptor (C6BU-1 cells stably expressing human P2X3 receptor, Fluo-3 fluorescence, FDSS 3000) is 8.30; against CYP3A4, less than 4.70. In the series on human liver microsomes, the remaining rate was more than 99.9%. Further, the rat P2X3 (+RSA) IC50 on rat P2X3 receptor worked out at 59 nM.

For `O=c1[nH]/c(=N\c2ccc(Oc3ccon3)cc2)n(Cc2ccc(Cl)cc2)c(=O)n1CC(CO)CO` [Compound I-2291], the bioavailability in series [1] was 83%. In addition, the pIC50 at human P2X3 receptor (setting [2]) is 8.40; at CYP3A4, less than 4.70. Further, the remaining rate in the series on human liver microsomes was determined as 94%. The rat P2X3 (+RSA) IC50 on rat P2X3 receptor was 20 nM.

In turn, `C[C@@H](Cn1c(=O)[nH]/c(=N\c2ccc(OCC3CC3)cc2)n(Cc2ccc(Cl)cc2)c1=O)C(=O)O` [Compound I-0837] came in with a bioavailability in series [1] of 46%. The pIC50 on human P2X3 receptor (setting [2]) was 7.77; at CYP3A4, less than 4.70. This compound came in with a remaining rate with human liver microsomes of 99%. Also, at rat P2X3 receptor, the rat P2X3 (+RSA) IC50 was 44 nM.

Source of the values: patent publication US9718790B2, “Triazine derivative and pharmaceutical composition having an analgesic activity comprising the same” (SHIONOGI & CO., LTD., priority 2010, dated 2017).
